“And” between values parts separate entries of the source, which are not always exact repeats. Equal values may be shown once.

Test [1] has as its system H460 (large cell carcinoma) cells. Description: In vitro cell viability assay, H460 cells. The note with it: cell line H460; HSV-1716 at an MOI of 0.1, mitomycin C at 0.1 micromolar. Format: cell-based, human. The procedure: Individual chemotherapeutic agents were then added to selected wells.
Each treatment experiment was performed at least twice.

For another test, the system named is H460 tumors. Description: In vivo xenograft flank model. Further details: species or system SCID mice. The note with it: 22 days after injection of H460 cells. As to the method:
The combined effects of mitomycin C and HSV-1716 using NSCLC tumors was assessed in vivo as follows. Cells of line H460 were implanted subcutaneously in the flanks of severe combined immunodeficient (SCID) mice. […] HSV-1716 was injected directly into individual tumors at a dose of 4×10^6 plaque forming units (pfu) in 200 microliters of medium. Control mice were injected with medium alone. Twenty-four hours later, 0.17 milligrams per kilogram body weight mitomycin C or an equivalent amount of PBS was administered to separate groups of HSV-treated and control mice. Tumor volume was estimated in all mice at regular intervals. Tumor volume in cubic millimeters was estimated using the formula
where TLmm was tumor length in millimeters and TWmm was tumor width in millimeters. Tumor growth curves were generated using the estimated values for tumor volume. After a period of 3-4 weeks, mice were sacrificed and their tumors were weighed.
In order to assess the oncolytic effect of mitomycin C in combination with HSV-1716, a murine xenograft model was used. […] These doses were designated ‘sufficient doses.’ H460 tumor cells were injected into the flanks of SCID mice. […] At that time, about 4×10^6 pfu of HSV-1716 or an equivalent volume of culture medium was injected into individual tumors. […]

In a further test the test system is HSV-1716 in H460 cells. As to the kind of experiment: One step growth curve, H460 cells (black plaque assay). Format: cell-based, herpes simplex virus type 1. The note with it: for burst size of HSV-1716: H460, MOI 0.1. As to the method: H460 cells were incubated overnight in six-well plates at a density of about 300,000 cells per well under standard culture condition. Following this incubation, the cells were infected with HSV-1716 at an MOI of 0.1 pfu. In a parallel experiment with five different experimental arms, the following procedures were performed. In the first and second arms, the cells were incubated in the presence of 0.1 micromolar mitomycin C or an equivalent additional volume of culture medium. Mediun or medium containing mitomycin C was added to the wells for 3 hours, either immediately before (in the first arm) or immediately following (in the second arm) infection of the cells with HSV-1716. In the other three arms, medium containing 0.1, 1.0, or 3.0 micromolar mitomycin C was added to the wells for 48 hours following infection of the cells with HSV-1716.
Cells were harvested from individual wells 1, 6, 19, 24, or 48 hours following infection. Cells were harvested by scraping cells from the walls of their well into the medium contained within the well. Harvested cells were stored at −80° C. Cell samples were titered by black plaque assay using baby hamster kidney cell (BHK) monolayers as described (Kucharczuk et al., 1997, Cancer Res. 57:466-471).
In order to examine what effect mitomycin C might have on viral replication, one step growth curve experiments were performed. H460 cells were infected with HSV-1716 at an MOI of 0.1, and then 0.1 or 1.0 or 3.0 micromolar mitomycin C was added to the cell culture medium. At selected times, cells were harvested and titered by black plaque assay as described herein. […] Addition of 1.0 or 3.0 micromolar mitomycin C for 48 hours after infection reduced burst size (13.7 and 0.2, respectively).

Another test relates to HSV-1716 in A549 cells. Description: One step growth curve, A549 cells. Format: cell-based, herpes simplex virus type 1. Conditions: cell line A549; low dose mitomycin C (0.1 micromolar).

As to `CO[C@@]12[C@H](COC(N)=O)C3=C(C(=O)C(C)=C(N)C3=O)N1C[C@@H]1N[C@@H]12` [mitomycin C], the cell survival in test [1] is given as 96.7%. Further, the “final mean tumor burden (tumor weight)” value in the test with H460 tumors (HSV-1716 4×10^6 pfu intratumoral day 7, mitomycin C 0.17 mg/kg i.v. day 8, n=14) is given as 1.122±0.070 grams. Also, the “reduction of tumor burden relative to the control” value in the test on H460 tumors (HSV-1716 4×10^6 pfu intratumoral, mitomycin C 0.17 mg/kg i.v.) was 20.2% and 21.8%. For the same compound, the “burst size of HSV-1716” value is reported as 13.7 in the test on HSV-1716 in H460 cells (1.0 micromolar mitomycin C for 48 hours after infection); 0.2 in the test on HSV-1716 in H460 cells (3.0 micromolar mitomycin C for 48 hours after infection); 57.1 in the test on HSV-1716 in H460 cells (post-treatment with 0.1 micromolar mitomycin C for 3 hours); 53.3 with HSV-1716 in H460 cells (post-treatment with 0.1 micromolar mitomycin C for 48 hours); 42.1 with HSV-1716 in H460 cells (pre-treatment with 0.1 micromolar mitomycin C for 3 hours). The “effect on burst size of HSV-1716” value in the test with HSV-1716 in H460 cells (cell line H460, low dose mitomycin C (0.1 micromolar)) is given as “Neither Augmented nor Reduced”; in the test with HSV-1716 in A549 cells, “Neither Augmented nor Reduced”.

The values are drawn from patent US6428968B1, “Combined therapy with a chemotherapeutic agent and an oncolytic virus for killing tumor cells in a subject” (The Trustees of the University of Pennsylvania, priority 1999, dated 2002).
